Experimental data as given in patent publication US20190015421A1, “Biomarkers for Treating Cancer with Apilimod” (LAM Therapeutics, Inc., priority 2016, published 2019).

Columns and labels:
[1] = system: 769-P; assay: apilimod 5 day assay in clear cell RCC line 769-P; assay type: cell-based; settings: Homo sapiens, 120 h, 769-P clear cell RCC line, VHL mutant, read-out: EC50 (nM) (avg, n = 2)
[2] = system: RCC-MF; assay: apilimod 5 day assay in clear cell RCC line RCC-MF; assay type: cell-based; settings: 120 h, read-out: EC50 (nM) (avg, n = 2)
[3] = system: RCC-ER; assay: apilimod 5 day assay in clear cell RCC line RCC-ER; assay type: cell-based; settings: 120 h, VHL mutant, read-out: EC50 (nM) (avg, n = 2)
Excerpt: FIG. 7B: example dose response of renal cell line RCC-ER and normal colon cell line CCD841CoN to apilimod in a 5 day assay.

[4] = system: RCC-FG2; assay: apilimod 5 day assay in clear cell RCC line RCC-FG2; assay type: cell-based; settings: 120 h, VHL mutant, read-out: EC50 (nM) (avg, n = 2)
[5] = system: RCC-JF; assay: apilimod 5 day assay in clear cell RCC line RCC-JF; assay type: cell-based; settings: 120 h, VHL mutant, read-out: EC50 (nM) (avg, n = 2)
[6] = system: 786-0; assay: apilimod 5 day assay in clear cell RCC line 786-0; assay type: cell-based; settings: Homo sapiens, 120 h, 786-0 clear cell RCC line, VHL mutant, read-out: EC50 (nM) (avg, n = 2)
[7] = system: A-704; assay: apilimod 5 day assay in clear cell RCC line A-704; assay type: cell-based; settings: Homo sapiens, A704, 120 h, A-704 clear cell RCC line, VHL mutant, read-out: EC50 (nM) (avg, n = 2)
[8] = system: RCC-JW; assay: apilimod 5 day assay in clear cell RCC line RCC-JW; assay type: cell-based; settings: 120 h, read-out: EC50 (nM) (avg, n = 2)
[9] = system: KMRC-1; assay: apilimod 5 day assay in clear cell RCC line KMRC-1; assay type: cell-based; settings: 120 h, KMRC-1 clear cell RCC line, VHL mutant, read-out: EC50 (nM) (avg, n = 2)
[10] = system: KMRC-3; assay: apilimod 5 day assay in clear cell RCC line KMRC-3; assay type: cell-based; settings: 120 h, KMRC-3 clear cell RCC line, VHL mutant, read-out: EC50 (nM) (avg, n = 2)
[11] = system: Caki-1; assay: apilimod 5 day assay in clear cell RCC line Caki-1; assay type: cell-based; settings: Homo sapiens, 120 h, Caki-1 clear cell RCC line, VHL WT, read-out: EC50 (nM) (avg, n = 2)
[12] = system: ACHN; assay: apilimod 5 day assay in clear cell RCC line ACHN; assay type: cell-based; settings: Homo sapiens, 120 h, VHL WT, read-out: EC50 (nM) (avg, n = 2)
[13] = system: Caki-2; assay: apilimod 5 day assay in clear cell RCC line Caki-2; assay type: cell-based; settings: Homo sapiens, 120 h, Caki-2 clear cell RCC line, VHL mutant, read-out: EC50 (nM) (avg, n = 2)
[14] = system: A498; assay: apilimod 5 day assay in clear cell RCC line A498; assay type: cell-based; settings: Homo sapiens, 120 h, VHL mutant, read-out: EC50 (nM) (avg, n = 2)
[15] = system: CA46 (TFEB-deficient B-NHL); assay: apilimod dose response in CA46 pools over-expressing GFP control or TFEB; assay type: cell-based; settings: CA46 pools over-expressing TFEB vs GFP control, 10-point dose response, 72 hrs
Description: FIG. 6: stable CA46 (TFEB-deficient B-NHL) pools over-expressing either GFP control or TFEB were treated with 10-point apilimod dose response for 72 hrs.
To further explore the role of TFEB in the cellular response to apilimod, the expression levels of TFEB across different cancer cell lines from the Cancer Cell Line Encyclopedia (CCLE) database (Barretina et al., 2012) were extracted and examined to determine whether there was a correlation between TFEB expression and the sensitivity of the cell line to apilimod. […] To test whether the increased TFEB expression contributes to the apilimod sensitivity observed in B-NHL, we overexpressed TFEB in the TFEB-deficient B-NHL cell line CA46.

[16] = system: clear cell RCC cell lines (n=5); assay: anti-proliferative activity versus standard of care drugs, 5 day assays; assay type: cell-based; settings: versus axitinib, sorafenib, pazopanib, sunitinib and rapamycin
Excerpt: FIG. 8: anti-proliferative activity of apilimod versus standard of care drugs in clear cell RCC cell lines (n=5) in 5 day assays. *Values denote the geometric mean.

[17] = system: TFEB; assay: TFEB phosphorylation status and subcellular localization by immunoblotting; assay type: cell-based; settings: SU-DHL-6 cells, apilimod 63 nM, 2 hr
Description: FIG. 4: nuclear and cytoplasmic levels of TFEB protein assayed by immunoblotting in SU-DHL-6 cells treated with apilimod (63 nM) for 2 hr.
TFEB is a master regulator of lysosomal gene expression and is activated by dephosphorylation followed by nuclear translocation (Roczniak-Ferguson et al., 2012; Settembre et al., 2012). Accordingly, we next looked at TFEB phosphorylation status and subcellular localization following apilimod treatment.

[18] = system: SU-DHL-6 and SU-DHL-10; assay: LysoTracker staining of the acidified compartment; assay type: cell-based; settings: 200 nM apilimod, 24 and 48 hrs, compared to DMSO
Description: FIG. 3: LysoTracker staining in SU-DHL-6 and SU-DHL-10 for 24 and 48 hrs after treatment with 200 nM (blue) apilimod compared to DMSO treated control (red).
(§1) To further understand apilimod's cellular mechanism of action, we performed a global gene expression analysis of the changes occurring after apilimod treatment of two non-Hodgkins B cell lymphoma (B-NHL) tumor cell lines, SU-DHL-10 and WSU-DLCL2. […] We next performed a gene ontology analysis. […] We next used LysoTracker staining to examine the acidified compartment of the cells.

[19] = system: SU-DHL-10 and WSU-DLCL2 B-NHL lines; assay: global gene expression and gene ontology analysis; assay type: cell-based; settings: SU-DHL-10 and WSU-DLCL2 after apilimod treatment
Excerpt: FIG. 1: heatmap representation of gene expression changes in SU-DHL-10 and WSU-DLCL2 B-NHL lines upon apilimod treatment.
as §1

[20] = system: RCC having a VHL mutation; assay: apilimod cytotoxicity in RCC lines by VHL status; assay type: cell-based; settings: clear cell RCC lines of Table 2, 5 day assay
[21] = system: TSC null cells; settings: mTOR pathway constitutively active; previously shown; cited from earlier work
[22] = system: synovial IL-12 and IL-23 expression; settings: patients with rheumatoid arthritis; Krauz et al. 2012; cited from earlier work
[23] = active Crohn's disease; Sands et al. 2010; cited from earlier work

EC50 [1]: 44 nM
EC50 [2]: 8 nM
EC50 [3]: 9 nM
EC50 [4]: 32 nM
EC50 [5]: 60 nM
EC50 [6]: 71 nM
EC50 [7]: 11 nM
EC50 [8]: 27 nM
EC50 [9]: 4 nM
EC50 [10]: 39 nM
EC50 [11]: 2280 nM
EC50 [12]: 9040 nM
EC50 [13]: 3360 nM
EC50 [14]: 84000 nM
SMILES: Cc1cccc(/C=N/Nc2cc(N3CCOCC3)nc(OCCc3ccccn3)n2)c1 [apilimod]
enhancement of apilimod sensitivity by TFEB over-expression [15]: greater than 50 fold
activity against clear cell RCCs relative to standard of care treatments [16]: superior activity
TFEB dephosphorylation and nuclear translocation [17]: induces TFEB dephosphorylation and nuclear translocation
acidified compartment (LysoTracker staining) [18]: expansion of the acidified compartment
gene ontology of genes induced by apilimod [19]: clear enrichment of lysosomal genes
cytotoxicity by VHL status [20]: preferentially cytotoxic in RCC having a VHL mutation
cytotoxicity in TSC null cells [21]: highly cytotoxic
effect on synovial IL-12 and IL-23 expression [22]: failed to alter synovial IL-12 and IL-23 expression
efficacy over placebo [23]: did not demonstrate efficacy over placebo
tolerability [23]: well tolerated
